The target of the assay is T1, connexin 43 (Cx43) hemichannel (Homo sapiens, UniProt P17302).
T1 construct: gene GJA1; human Cx43 tagged with GFP (hCx43-GFP)
In words: TO-PRO-3 dye uptake in HeLa cells transfected with hCx43-GFP, Ca2+-free HBSS. It counts as cell-based.

T1 sequence (P17302 2-382): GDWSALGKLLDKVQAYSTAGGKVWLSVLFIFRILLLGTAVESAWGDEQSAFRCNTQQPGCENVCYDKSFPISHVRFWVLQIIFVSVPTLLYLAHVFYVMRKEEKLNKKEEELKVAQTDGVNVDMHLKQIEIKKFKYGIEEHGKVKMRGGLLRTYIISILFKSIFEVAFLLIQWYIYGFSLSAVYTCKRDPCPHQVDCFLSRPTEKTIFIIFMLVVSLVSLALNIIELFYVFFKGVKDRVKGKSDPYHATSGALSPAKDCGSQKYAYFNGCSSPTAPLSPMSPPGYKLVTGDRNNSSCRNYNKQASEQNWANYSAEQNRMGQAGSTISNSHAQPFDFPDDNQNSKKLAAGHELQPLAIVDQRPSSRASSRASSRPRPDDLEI

In general, IC50 refers to the concentration at which inhibition is half-maximal. The molecule `COc1cc2c(cc1O)C[C@H]1c3c(cc(O)c(OC)c3-2)CCN1C` [boldine] displayed an IC50 of 12.5 µM.

The values above are taken from article PMC12481613, “Boldine as a neuroprotective agent against motor neuron degeneration in models of amyotrophic lateral sclerosis” (Frontiers in Cellular Neuroscience, 2025).
